We go through one compound from patent US8962530B2, “Inflammatory bowel disease therapies” (Regents of the University of Colorado, priority 2007, dated 2015).

The test system of assay [1] is TNBS-induced colitis. As to the kind of experiment: Colon length shortening in TNBS-colitis model. Type of assay: in vivo. To be noted: TNBS-colitis mice, vehicle-treated greater than 17%. From the text:
The effectiveness of compounds and methods of the present invention on intestinal barrier protection and treatment of inflammatory bowel disease (IBD) in TNBS (2,4,6-trinitrobenzene sulfonic acid)-induced colitis, an established animal model of inflammatory bowel disease, was examined. TNBS-induced colitis was induced in mice using a modification of techniques previously described. (See Morris et al (1989) Gastroenterology 96:795-803; Boirivant et al (1998) J Exp Med 188:1929-1939; Karhausen et al (2004) J Clin Invest 114:1098-1106.) Mice were shaved on the abdomen (causing total depletion of hair and microlesions) and were then sensitized to subsequent treatment by epicutaneous application of 1% TNBS (Sigma-Aldrich) in 100% ethanol on day minus 7. Seven days later, on day 0, animals were sedated with a 2.5% Tribromoethanol solution in phosphate-buffered saline (14 μl/g body weight), followed by intrarectal administration of a 2.5% TNBS solution in 50% ethanol (5 μl/g body weight). Administration of the 2.5% TNBS solution was carried out using an epidural catheter ([…] Plus Epidural Catheter, Arrow International), which was inserted approximately 6 cm ab ano followed by release of the TNBS solution. […] Colon length was determined by measurement of the distance from the most distal aspect of the cecum to the most terminal aspect of the rectum on day 3 post-induction of TNBS-colitis.

The subject of assay [2] is TNBS-induced colitis. As to the kind of experiment: Histological analysis of colon sections in TNBS-colitis model. The class given is in vivo. As to conditions: TNBS-colitis mice; 40 mg/kg i.p. on day minus 1, day 0, day 1; day three; compared to vehicle-control treated TNBS-colitis animals. From the text:
The effectiveness of compounds and methods of the present invention on intestinal barrier protection and treatment of inflammatory bowel disease (IBD) in TNBS (2,4,6-trinitrobenzene sulfonic acid)-induced colitis, an established animal model of inflammatory bowel disease, was examined. TNBS-induced colitis was induced in mice using a modification of techniques previously described. (See Morris et al (1989) Gastroenterology 96:795-803; Boirivant et al (1998) J Exp Med 188:1929-1939; Karhausen et al (2004) J Clin Invest 114:1098-1106.) Mice were shaved on the abdomen (causing total depletion of hair and microlesions) and were then sensitized to subsequent treatment by epicutaneous application of 1% TNBS (Sigma-Aldrich) in 100% ethanol on day minus 7. Seven days later, on day 0, animals were sedated with a 2.5% Tribromoethanol solution in phosphate-buffered saline (14 μl/g body weight), followed by intrarectal administration of a 2.5% TNBS solution in 50% ethanol (5 μl/g body weight). Administration of the 2.5% TNBS solution was carried out using an epidural catheter ([…] Plus Epidural Catheter, Arrow International), which was inserted approximately 6 cm ab ano followed by release of the TNBS solution. To ensure the continuance of the TNBS solution in the colon, mice were suspended in a vertical position for at least 5 minutes following administration. Vehicle control animals received a corresponding volume of 50% ethanol solution alone. Unless otherwise indicated, compounds of the invention were administered to animals intraperitoneally (i.p.) as a solution. Animals were dosed with compound (40 mg/kg/day or 20 mg/kg/day) on day minus 1, day 0, and day 1, or exclusively on day 0 and day 1, by i.p. injection. On day 0, TNBS treatment was performed on animals 4 hours after injection of compound. The effect of methods and compounds of the present invention on structural changes of the colon associated with inflammatory bowel disease was studied using an established animal model of inflammatory bowel disease (described above in Example 1). […]

In the case of `O=C(O)CNC(=O)c1ncc2cc(Sc3ccccc3)ccc2c1O` [Compound A, [(4-Hydroxy-7-phenylsulfanyl-isoquinoline-3-carbonyl)-amino]-acetic acid], in the assay on TNBS-induced colitis [1] (20 mg/kg i.p. on day minus 1, day 0, day 1), the “average decrease in colon length at day 3” value is “approximately 12%”. Further, the “average decrease in colon length at day 3” value with TNBS-induced colitis [1] (40 mg/kg i.p. on day minus 1, day 0, day 1) is reported as ~8%. Further, in the assay on TNBS-induced colitis [2], the “inflammatory infiltrate in colon sections” value is “reduction in inflammatory infiltrate”, the “tissue architecture in colon sections” value is “overall general preservation of tissue architecture” and the “villous blunting in colon sections” value is given as “reduction in villous blunting”.
